PubChem BioAssay (NCI)
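Values below derive from 48-hour exposures of cells grown in 96-well plates, with endpoints linearly interpolated between the two concentrations bracketing the appropriate inhibition level. At the TGI there is no net growth.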

Columns and labels:
Assay in all cases: growth of human tumour cells (NCI), 48 h
[1] = tested on: LOX IMVI melanoma
[2] = tested on: UACC-62 melanoma
[3] = tested on: SF-268 CNS
[4] = tested on: ACHN renal
[5] = tested on: SK-OV-3 ovarian
[6] = tested on: HOP-18 NSCLC
[7] = tested on: UO-31 renal
[8] = tested on: SK-MEL-28 melanoma
[9] = tested on: KM20L2 colon
[10] = tested on: DMS 114 small cell lung
[11] = tested on: HL-60(TB) leukemia
[12] = tested on: COLO 205 colon
[13] = tested on: TK-10 renal
[14] = tested on: UACC-257 melanoma
[15] = tested on: SN12C renal
[16] = tested on: CAKI-1 renal
[17] = tested on: OVCAR-8 ovarian
[18] = tested on: MALME-3M melanoma
[19] = tested on: SNB-75 CNS
[20] = tested on: RXF 393 renal
[21] = tested on: CCRF-CEM leukemia
[22] = tested on: EKVX NSCLC
[23] = tested on: DLD-1 colon
[24] = tested on: SR leukemia
[25] = tested on: OVCAR-3 ovarian
[26] = tested on: HT29 colon
[27] = tested on: NCI-H522 lung
[28] = tested on: HOP-92 NSCLC
[29] = tested on: OVCAR-5 ovarian
[30] = tested on: HCT-116 colon
[31] = tested on: XF 498 CNS
[32] = tested on: SK-MEL-2 melanoma
[33] = tested on: K-562 leukemia
[34] = tested on: MOLT-4 leukemia
[35] = tested on: M14 melanoma
[36] = tested on: RPMI-8226 leukemia
[37] = tested on: 786-0 renal
[38] = tested on: LXFL 529 NSCLC
[39] = tested on: OVCAR-4 ovarian
[40] = tested on: SNB-78 CNS
[41] = tested on: SF-539 CNS
[42] = tested on: NCI-H226 lung
[43] = tested on: M19-MEL melanoma
[44] = tested on: SW-620 colon
[45] = tested on: SNB-19 CNS
[46] = tested on: A498 renal
[47] = tested on: HOP-62 NSCLC
[48] = tested on: DU-145 prostate
[49] = tested on: A549 NSCLC
[50] = tested on: KM12 colon
[51] = tested on: SK-MEL-5 melanoma
[52] = tested on: IGROV1 ovarian
[53] = tested on: MDA-MB-231 breast
[54] = tested on: MDA-MB-435
[55] = tested on: MCF7 breast
[56] = tested on: HS 578T breast
[57] = tested on: T-47D breast
[58] = tested on: MDA-N
[59] = tested on: U251 CNS
[60] = tested on: NCI-H460 lung
[61] = tested on: PC-3 prostate
[62] = tested on: NCI/ADR-RES ovarian
[63] = tested on: NCI-H23 lung
[64] = tested on: HCT-15 colon
[65] = tested on: HCC-2998 colon
[66] = tested on: BT-549 breast
[67] = tested on: SF-295 CNS

SMILES: Oc1ccccc1-c1cnnc(-c2ccccc2O)c1
- TGI [1]: 41 µM
- TGI [2]: 34 µM
- TGI [3]: > 100 µM
- TGI [4]: 83.5 µM
- TGI [5]: 72.8 µM
- TGI [6]: 96.6 µM
- TGI [7]: 44.3 µM
- TGI [8]: 88.3 µM
- TGI [9]: 84.3 µM
- TGI [10]: 38.3 µM
- TGI [11]: 44.1 µM
- TGI [12]: 41.7 µM
- TGI [13]: > 100 µM
- TGI [14]: 53.5 µM
- TGI [15]: > 100 µM
- TGI [16]: 65.2 µM
- TGI [17]: 57.4 µM
- TGI [18]: 64.7 µM
- TGI [19]: 51.6 µM
- TGI [20]: 56.5 µM
- TGI [21]: 36.5 µM
- TGI [22]: 92.9 µM
- TGI [23]: > 100 µM
- TGI [24]: 75.1 µM
- TGI [25]: 44.6 µM
- TGI [26]: 64.3 µM
- TGI [27]: 41.3 µM
- TGI [28]: 49.9 µM
- TGI [29]: 61.8 µM
- TGI [30]: 44.2 µM
- TGI [31]: 32.3 µM
- TGI [32]: 43.6 µM
- TGI [33]: > 100 µM
- TGI [34]: 66.5 µM
- TGI [35]: 43.3 µM
- TGI [36]: 51.2 µM
- TGI [37]: 36.6 µM
- TGI [38]: 58.2 µM
- TGI [39]: > 100 µM
- TGI [40]: > 100 µM
- TGI [41]: 65.1 µM
- TGI [42]: 73.9 µM
- TGI [43]: 61.8 µM
- TGI [44]: > 100 µM

SMILES: CCc1c[n+]2c(cc1C1=CN3c4ccccc4[C@]45CCN6C/C(=C/CO)[C@H](C[C@H]64)[C@@H]([C@@H]1O)[C@H]35)-c1[nH]c3ccccc3c1CC2
- TGI [1]: > 50 µM
- TGI [2]: > 50 µM
- TGI [3]: > 50 µM
- TGI [4]: > 50 µM
- TGI [5]: > 50 µM
- TGI [45]: > 50 µM
- TGI [46]: > 50 µM
- TGI [7]: > 50 µM
- TGI [8]: > 50 µM
- TGI [47]: > 50 µM
- TGI [48]: > 50 µM
- TGI [49]: > 50 µM
- TGI [50]: > 50 µM
- TGI [11]: > 50 µM
- TGI [51]: > 50 µM
- TGI [12]: > 50 µM
- TGI [13]: > 50 µM
- TGI [14]: > 50 µM
- TGI [52]: > 50 µM
- TGI [53]: > 50 µM
- TGI [54]: > 50 µM
- TGI [15]: > 50 µM
- TGI [16]: > 50 µM
- TGI [55]: > 50 µM
- TGI [17]: > 50 µM
- TGI [18]: > 50 µM
- TGI [56]: > 50 µM
- TGI [57]: > 50 µM
- TGI [19]: > 50 µM
- TGI [20]: > 50 µM
- TGI [21]: > 50 µM
- TGI [22]: > 50 µM
- TGI [58]: > 50 µM
- TGI [24]: > 50 µM
- TGI [25]: > 50 µM
- TGI [59]: > 50 µM
- TGI [60]: > 50 µM
- TGI [26]: > 50 µM
- TGI [27]: > 50 µM
- TGI [28]: > 50 µM
- TGI [29]: > 50 µM
- TGI [30]: > 50 µM
- TGI [32]: > 50 µM
- TGI [33]: > 50 µM
- TGI [61]: > 50 µM
- TGI [34]: > 50 µM
- TGI [62]: > 50 µM
- TGI [63]: > 50 µM
- TGI [35]: > 50 µM
- TGI [36]: > 50 µM
- TGI [64]: > 50 µM
- TGI [65]: > 50 µM
- TGI [37]: > 50 µM
- TGI [39]: > 50 µM
- TGI [41]: > 50 µM
- TGI [42]: > 50 µM
- TGI [66]: > 50 µM
- TGI [67]: > 50 µM
- TGI [44]: > 50 µM

SMILES: C1=Nc2ccc(cc2)-c2ccc(cc2)N=Cc2ccccc2OCc2cccc(n2)COc2ccccc21
- TGI [1]: > 100 µM
- TGI [2]: > 100 µM
- TGI [3]: > 100 µM
- TGI [4]: > 72.9 µM
- TGI [5]: > 100 µM
- TGI [45]: 46.4 µM
- TGI [46]: > 100 µM
- TGI [7]: > 100 µM
- TGI [8]: > 100 µM
- TGI [47]: 20.1 µM
- TGI [48]: > 100 µM
- TGI [49]: > 100 µM
- TGI [50]: > 100 µM
- TGI [11]: > 100 µM
- TGI [51]: > 100 µM
- TGI [12]: > 100 µM
- TGI [13]: > 93.3 µM
- TGI [14]: > 100 µM
- TGI [52]: > 100 µM
- TGI [53]: > 66.3 µM
- TGI [54]: > 100 µM
- TGI [15]: > 100 µM
- TGI [16]: > 100 µM
- TGI [55]: > 100 µM
- TGI [17]: > 100 µM
- TGI [18]: > 100 µM
- TGI [56]: 47 µM
- TGI [57]: > 100 µM
- TGI [19]: 12.1 µM
- TGI [20]: > 84 µM
- TGI [21]: > 100 µM
- TGI [22]: > 100 µM
- TGI [58]: > 100 µM
- TGI [24]: > 100 µM
- TGI [25]: > 100 µM
- TGI [59]: > 42.8 µM
- TGI [60]: > 100 µM
- TGI [26]: > 100 µM
- TGI [27]: > 96.5 µM
- TGI [28]: > 60 µM
- TGI [29]: > 100 µM
- TGI [30]: > 100 µM
- TGI [32]: > 76.3 µM
- TGI [33]: > 100 µM
- TGI [61]: > 100 µM
- TGI [34]: > 100 µM
- TGI [62]: > 100 µM
- TGI [63]: 45.9 µM
- TGI [35]: > 100 µM
- TGI [36]: > 100 µM
- TGI [64]: > 100 µM
- TGI [65]: > 100 µM
- TGI [37]: 33.1 µM
- TGI [39]: > 100 µM
- TGI [41]: > 66.3 µM
- TGI [42]: > 100 µM
- TGI [66]: > 95.4 µM
- TGI [67]: > 75.9 µM
- TGI [44]: > 100 µM
